Reference: US20240307353A1, “JAK1 PATHWAY INHIBITORS FOR THE TREATMENT OF ASTHMA” (Incyte Corporation, priority 2023, published 2024)
pIC50: −log10 of the molar value.

Tests used:
[1] = system: HDM-induced severe asthma model; assay: House dust mite (HDM)-induced severe asthma model, lung mechanics after methacholine challenge; assay type: in vivo, female BALB/c mice
Experimental: (§1) In vivo studies were conducted to test Compound 1 in two models of severe asthma. The first study conducted included an experimental house dust mite (HDM)-induced severe asthma model representative of both Th2/eosinophilic and Th1/Th17/neutrophilic asthma endotypes. The second study conducted included an ovalbumin (OVA) model of acute asthma which more closely represents a Th2/eosinophilic asthma endotype. For each model, fifty-eight female BALB/c mice were randomly and prospectively assigned to six groups, one group of six, one group of twelve, and four groups of ten animals each (see Table 3).
HDM model: On Day 0, animals in Groups 2-6 were sensitized with 50 μg of HDM in an emulsion with 150 μg of complete Freund's adjuvant (CFA) in a 100 μL volume by subcutaneous injection (SC). Animals in Groups 2-6 were challenged on Day 14 with 50 μg HDM in 40 μL saline via intra-nasal instillation (IN). Group 1 served as the naïve control group. On Days 12, 13, 14, and 15, animals in Groups 2-6 were dosed according to Table 3. […] On Day 16, animals underwent methacholine challenge with lung mechanics measurements using a flexi Vent mechanical ventilator.
(§2) . Elasticity of the lung (H) shown in FIGS. 6A-B and airway resistance in small airways and alveoli (G) shown in FIGS. 7A-B were measured using a flexiVent mechanical ventilator following challenge with 25 mg/mL methacholine. Group numbers represent the following treatments: 1) naïve; 2) diseased, vehicle treated; 3) diseased, Compound 1 (1 mg/kg); […]; and 6) diseased, positive control. Data are presented as mean±SEM. n=6-12 per group. Statistical significance between groups was determined by one-way ANOVA with Dunnett's multiple comparisons test used to compare all groups to the vehicle-control group. (*:p<0.05; **:p≤0.01).

[2] = system: OVA model of acute asthma; assay: Ovalbumin (OVA) model of acute asthma, lung mechanics after methacholine challenge; assay type: in vivo, female BALB/c mice
Experimental: as §1
OVA model: On Day 0 and Day 7, animals in Groups 2-6 were sensitized with 20 μg of OVA and 1.5 mg Alum in 100 μL volume by intraperitoneal injection (IP). Animals in Groups 2-6 were challenged on Day 13, 14, and 15 with 20 μg OVA in 50 μL PBS via intra-nasal instillation (IN). Group I served as the naïve control group. On Days 12, 13, 14, and 15, animals in Groups 2-6 were dosed according to Table 3. On Day 16, animals underwent methacholine challenge with lung mechanics measurements using a flexiVent mechanical ventilator.
as §2

[3] = system: cytokine production in whole blood stimulated with Dynabeads Human T-Activator CD3/CD28; assay: Whole blood assay, plasma cytokines after CD3/CD28 stimulation (MSD multiplex); assay type: cell-based; settings: 0.3 μM, 1 μM, 19 hours at 37° C., n=6
Experimental: An in vitro study was conducted to investigate the impact of Compound 1 on eosinophil and neutrophil activation and cytokine production that play a role in contributing to eosinophilic and noneosinophilic (neutrophilic) asthma endotypes. Whole blood from healthy volunteers was unstimulated (Unstim) or stimulated with Dynabeads™ Human T-Activator CD3/CD28 in the absence (0) or presence (0.3 μM, 1 μM) of Compound 1 for a total of 19 hours at 37° C. Whole blood was analyzed for cell surface activation marker CD69 gated for eosinophils or neutrophils by flow cytometry (n=12). Plasma was isolated from the whole blood and analyzed for various cytokines using a MSD multiplex platform (n=6). […] Because Compound 1 inhibits the production of Th2/Th1/Th17 cytokines and reduces activation of eosinophils and neutrophils Compound 1 provides an endotype-agnostic means to treat severe asthma.
FIGS. 2-4 depict the effect of Compound 1 on cytokine levels in a whole blood assay. Plasma was isolated from whole blood samples and analyzed for Th2 cytokines (FIGS. 2A-C: IL-4, IL-5, and IL-13 respectively); Th1/Th17 cytokines (FIGS. 3A-C: IFNγ, TNFα, and IL-22 respectively), and other inflammatory cytokines/chemokines (FIGS. 4A-B: CXCL10 and IL-6 respectively). Each symbol represents a different donor. Values from individual donors are shown, along with mean value for each treatment. Data was plotted in GraphPad PRISM v.9.3.1 and analyzed by a paired t test (*:p<0.05; **:p≤0.01; ***:p≤0.001).

JAK2 (a.a. 828-1132) = JAK2 (a.a. 828-1132) (Homo sapiens (Human), UniProt O60674); assay: In vitro JAK kinase assay (HTRF), JAK2 versus JAK1; assay type: biochemical; settings: IC50 ratio, 1 mM ATP
Experimental: (§3) The catalytic activity of JAK1, JAK2 or JAK3 was assayed by measuring the phosphorylation of a biotinylated peptide. The phosphorylated peptide was detected by homogenous time resolved fluorescence (HTRF). […] Reactions were carried out at room temperature for 1 hour and then stopped with 20 μL 45 mM EDTA, 300 nM SA-APC, 6 nM Eu-Py20 in assay buffer (Perkin Elmer, Boston, MA). Binding to the Europium labeled antibody took place for 40 minutes and HTRF signal was measured on a Fusion plate reader (Perkin Elmer, Boston, MA).

[4] = biological target: human JAK1 (a.a. 837-1142) (Homo sapiens, UniProt P23458); assay: In vitro JAK kinase assay (HTRF), JAK1; assay type: biochemical; settings: 1 mM ATP
Experimental: as §3

Chain of JAK2 (a.a. 828-1132) (O60674 828-1132): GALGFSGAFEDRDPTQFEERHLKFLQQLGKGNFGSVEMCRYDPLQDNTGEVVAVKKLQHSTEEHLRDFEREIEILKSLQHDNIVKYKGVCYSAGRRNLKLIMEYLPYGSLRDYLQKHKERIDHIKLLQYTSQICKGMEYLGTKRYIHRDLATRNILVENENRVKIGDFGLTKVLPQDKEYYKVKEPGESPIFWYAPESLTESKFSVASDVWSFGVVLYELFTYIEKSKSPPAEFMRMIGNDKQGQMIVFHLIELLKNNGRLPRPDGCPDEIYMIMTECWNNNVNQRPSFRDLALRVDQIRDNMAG

For `Cc1n[nH]c(C)c1-c1cnn(C2(CC#N)CN(c3cc(F)c(C(=O)N[C@@H](C)C(F)(F)F)cc3F)C2)c1` [Compound 1, 4-[3-(cyanomethyl)-3-(3′,5′-dimethyl-1H,1′H-4,4′-bipyrazol-1-yl)azetidin-1-yl]-2,5-difluoro-N-[(1S)-2,2,2-trifluoro-1-methylethyl]benzamide], the “elasticity of the lung (H)” value ([1]; 25 mg/mL methacholine) was “decreases”, the “resistance in small airways and alveoli (G)” value (shortened to “resistance”) ([1]; 25 mg/mL methacholine) was “decreases” and the “airway measures (Rrs, Ers, G, H), difference between groups” value ([1]; 10 and 30 mg/kg, Days 12-15, methacholine challenge Day 16) was “no significant differences”. For the same compound, the “elasticity of the lung (H)” value ([2]; 10 mg/kg dose) was “significant reduction”, the “resistance” value ([2]; 10 mg/kg dose) was “significant reduction” and the “elasticity of the lung (H)” value ([2]; 25 mg/mL methacholine) was “reversed the elevation”. For the same compound, the “resistance” value ([2]; 25 mg/mL methacholine) was “reversed the elevation”, the “Th1 and Th17/Th22 cytokines (IFNγ, TNFα, IL-22)” value [3] was “reduced Th1 and Th17/Th22 cytokines induced by T-cell activation in a concentration-dependent manner” and the “inflammatory cytokines/chemokines (CXCL10, IL-6)” value [3] was “reduced inflammatory cytokines/chemokines induced by T cell activation in a concentration-dependent manner”. The “levels of Th2 cytokines (IL-4, IL-5, IL-13)” value [3] was “reduced the levels of Th2 cytokines induced by T-cell activation in a concentration-dependent manner”.

With `CC(C)(O)c1cc(O[C@H]2CC[C@@H](N3CC(CC#N)(n4cc(-c5ncnc6[nH]ccc56)cn4)C3)CC2)nc(C(F)(F)F)c1` [Compound 20, {1-(cis-4-{[4-(1-hydroxy-1-methylethyl)-6-(trifluoromethyl)pyridin-2-yl]oxy}cyclohexyl)-3-[4-(7H-pyrrolo[2,3-d]pyrimidin-4-yl)-1H-pyrazol-1-yl]azetidin-3-yl}acetonitrile] the JAK2/JAK1 (JAK2 (a.a. 828-1132)) was >10 and the pIC50 [4] was > 8.00.
